Test results: ChEMBL document CHEMBL2029268, “A new high-yield synthetic route to PET CB1 radioligands [11C]OMAR and its analogs” (Bioorg Med Chem Lett, 2012)

Assay: Octanol-water distribution coefficient, log P of the compound by HPLC analysis
Assay type: physicochemical

logP | Structure (SMILES)
2.03 | [11CH3]Oc1ccc(-c2c(C#N)c(C(=O)NN3CCCC3)nn2-c2ccccc2Br)cc1
2.29 | [11CH3]Oc1ccc(-c2c(C#N)c(C(=O)NN3CCCCC3)nn2-c2ccccc2Br)cc1
